A value given as a limit tells only on which side of the number the result lay.

Test [1] has as its target T1, Dihydrofolate reductase (Rattus norvegicus, UniProt Q920D2).
T1 sequence (Q920D2 whole entry): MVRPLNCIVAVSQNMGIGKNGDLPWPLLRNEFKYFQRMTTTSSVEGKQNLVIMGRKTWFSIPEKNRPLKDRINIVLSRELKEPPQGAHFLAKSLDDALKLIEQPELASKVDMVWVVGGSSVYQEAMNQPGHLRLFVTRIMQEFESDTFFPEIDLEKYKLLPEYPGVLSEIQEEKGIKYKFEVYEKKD
Description: Compound was tested for inhibition activity against rat liver lipophilic Dihydrofolate reductase (DHFR).

In test [2] the target is T2, Bifunctional dihydrofolate reductase-thymidylate synthase (Toxoplasma gondii, UniProt Q07422).
T2 sequence (Q07422 whole entry): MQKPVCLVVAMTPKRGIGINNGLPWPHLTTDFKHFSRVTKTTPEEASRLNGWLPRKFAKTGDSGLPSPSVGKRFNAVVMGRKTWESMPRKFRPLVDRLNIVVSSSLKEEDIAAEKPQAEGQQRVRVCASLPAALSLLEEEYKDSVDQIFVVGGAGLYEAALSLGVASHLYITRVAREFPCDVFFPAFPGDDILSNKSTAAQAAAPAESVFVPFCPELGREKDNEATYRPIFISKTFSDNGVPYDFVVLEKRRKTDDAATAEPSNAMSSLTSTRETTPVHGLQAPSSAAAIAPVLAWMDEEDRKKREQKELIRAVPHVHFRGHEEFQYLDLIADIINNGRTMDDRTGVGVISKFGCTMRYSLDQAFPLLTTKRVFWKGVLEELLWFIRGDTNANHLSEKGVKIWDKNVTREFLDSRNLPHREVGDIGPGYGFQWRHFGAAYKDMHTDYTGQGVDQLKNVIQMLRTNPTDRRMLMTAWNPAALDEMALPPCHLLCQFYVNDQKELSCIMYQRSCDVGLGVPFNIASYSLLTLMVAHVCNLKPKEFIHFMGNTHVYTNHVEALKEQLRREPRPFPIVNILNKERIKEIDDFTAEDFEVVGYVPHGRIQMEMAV
The test is described as follows: Compound was tested for inhibition activity against Toxoplasma gondii (Toxoplasma gondii) Dihydrofolate reductase.

Test [3] in a line: Selectivity ratio is the ratio between the IC50 values of rat liver and Pneumocystis carinii.
A short description of test [4]: Selectivity ratio is the ratio between the IC50 values of rat liver and Toxoplasma gondii.
Test [5] addresses T3, Dihydrofolate reductase (Pneumocystis carinii, UniProt P16184).
T3 sequence (P16184 whole entry): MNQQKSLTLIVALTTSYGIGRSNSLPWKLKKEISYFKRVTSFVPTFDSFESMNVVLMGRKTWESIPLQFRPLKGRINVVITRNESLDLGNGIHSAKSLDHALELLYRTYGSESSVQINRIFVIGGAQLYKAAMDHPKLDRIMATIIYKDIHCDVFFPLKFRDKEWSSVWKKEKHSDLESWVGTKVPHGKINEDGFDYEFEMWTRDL
Description: Compound was tested for inhibition activity against pneumocystis carinii (Pneumocystis carinii) Dihydrofolate reductase

In the case of `COc1ccc(OC)c(Cc2cnc3nc(N)nc(N)c3c2C)c1` [PIRITREXIM], the IC50 in test [1] was 15 nM.

On to `COc1cc(CCCC2CCc3nc(N)nc(N)c32)cc(OC)c1OC` (stereo not given), for which the IC50 in test [2] amounted to 140 nM; in test [5], 1300 nM; in test [1], 220 nM. Further, the Selectivity ratio came out at 0.17 in test [3] and 1.57 in test [4].

As to `COc1cc(CCC2CCc3nc(N)nc(N)c32)cc(OC)c1OC` (stereo not given), the values for the IC50 in test [2], in test [5] and in test [1] were 140 nM, 1800 nM and 510 nM, respectively. Also, the Selectivity ratio was determined as 0.28 in test [3] and 3.64 in test [4].

Regarding `COc1cc(CC2CCc3nc(N)nc(N)c32)cc(OC)c1OC` (stereo not given), the IC50 in test [2] was 21000 nM; in test [5] it was greater than 32000 nM; in test [1], 69000 nM. Moreover, the Selectivity ratio in test [4] is 3.29.

As a reminder, the IC50 is the concentration at which inhibition is half-maximal. A higher IC50 goes with lower potency.

Values taken from ChEMBL document CHEMBL1131495, “2,4-Diamino-6,7-dihydro-5H-cyclopenta[d]pyrimidine analogues of trimethoprim as inhibitors of Pneumocystis carinii and Toxoplasma gondii dihydrofolate reductase” (J Med Chem, 1998).
